Assay results from US4935238A, “Antibiotic A 40926 complex and its pure factors PA, PB, A, B and B0” (Gruppo Lepetit, S.p.A., priority 1984, dated 1990).

Columns and labels:
Assay in all cases: Bactericidal effect on N. gonorrhoeae strains
Type in all cases: cell-based
[1] = tested on: N. gonorrhoeae L 1605; settings: Neisseria gonorrhoeae, L1605, clinical isolate, penicillin-resistant
[2] = tested on: N. gonorrhoeae L 1007 (CTC 6820); settings: Neisseria gonorrhoeae
[3] = tested on: N. gonorrhoeae L 1001; settings: Neisseria gonorrhoeae, L1001, clinical isolate
[4] = tested on: N. gonorrhoeae L 1596; settings: Neisseria gonorrhoeae, L1596, clinical isolate, spectinomycin-resistant
[5] = tested on: N. gonorrhoeae L 1601; settings: Neisseria gonorrhoeae, L1601, clinical isolate, penicillin-resistant
[6] = tested on: N. gonorrhoeae L 1004; settings: Neisseria gonorrhoeae, L1004, clinical isolate
[7] = 24 h, 99.9% of initial inoculum killed

CN[C@@H]1[C@H](O)[C@H](NC)[C@H]2O[C@@]3(O)C(=O)C[C@@H](C)O[C@H]3O[C@@H]2[C@H]1O [Spectinomycin]
16 µg/mL: MIC ([2]; 48 h) | MBC [2, 7] | MIC ([3]; 48 h) | MBC [5, 7] | MIC ([5]; 48 h) | MIC ([6]; 48 h)
32 µg/mL: MBC [1, 7] | MIC ([1]; 48 h) | MBC [3, 7] | MBC [6, 7]
> 128 µg/mL: MBC [4, 7] | MIC ([4]; 48 h)
